The values below come from patent US9540392B2, “Thienopyrimidines” (BAYER PHARMA AKTIENGESELLSCHAFT, priority 2012, dated 2017).

pIC50: −log10 of the molar value.

As a reminder, the pIC50 is the IC50 on a negative log10 scale, so that one unit is a factor of ten.

T1 sequence (Q9BUB5 1-424 isoform Q9BUB5-2 T344D): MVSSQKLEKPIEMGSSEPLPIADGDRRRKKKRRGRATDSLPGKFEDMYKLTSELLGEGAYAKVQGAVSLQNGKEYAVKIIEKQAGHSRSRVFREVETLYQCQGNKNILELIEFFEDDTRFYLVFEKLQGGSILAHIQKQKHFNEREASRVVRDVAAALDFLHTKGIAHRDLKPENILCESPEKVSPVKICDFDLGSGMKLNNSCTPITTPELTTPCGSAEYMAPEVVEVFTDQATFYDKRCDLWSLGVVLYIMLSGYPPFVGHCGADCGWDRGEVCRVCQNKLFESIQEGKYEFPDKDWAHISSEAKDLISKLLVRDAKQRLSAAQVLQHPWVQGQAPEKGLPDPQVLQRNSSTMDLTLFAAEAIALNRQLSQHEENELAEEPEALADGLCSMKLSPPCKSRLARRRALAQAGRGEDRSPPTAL

This test has as its target T1, human full-length MKNK1 (Homo sapiens, UniProt Q9BUB5, T385D).
T1 construct: GST (N); purchased Carna Biosciences 02-145; host or cells: insect cells (baculovirus expression system)
As to the kind of experiment: MKNK1 kinase high ATP assay (TR-FRET). The test is classed as biochemical. Particulars: 2 mM ATP, after preincubation with MKNK1; read-out: MKNK1 IC50 (MKNK1 high ATP). The protocol: MKNK1-inhibitory activity at high ATP of compounds of the present invention after their preincubation with MKNK1 was quantified employing the TR-FRET-based MKNK1 high ATP assay as described in the following paragraphs.
As substrate for the kinase reaction the biotinylated peptide biotin-Ahx-[…] (C-terminus in amide form) was used, which can be purchased e.g. from the company Biosyntan (Berlin-Buch, Germany).
For the assay 50 nL of a 100 fold concentrated solution of the test compound in DMSO was pipetted into a black low volume 384 well microtiter plate (Greiner Bio-One, Frickenhausen, Germany), 2 μL of a solution of MKNK1 in aqueous assay buffer [50 mM HEPES pH 7.5, 5 mM MgCl2, 1.0 mM dithiothreitol, 0.005% (v/v) Nonidet-P40 (Sigma)] was added and the mixture was incubated for 15 min at 22° C. to allow pre-binding of the test compounds to the enzyme before the start of the kinase reaction. Then the kinase reaction was started by the addition of 3 μL of a solution of adenosine-tri-phosphate (ATP, 3.3 mM=>final conc. in the 5 μL assay volume is 2 mM) and substrate (0.1 μM=>final conc. in the 5 μL assay volume is 0.06 μM) in assay buffer and the resulting mixture was incubated for a reaction time of 30 min at 22° C. The concentration of MKNK1 was adjusted depending of the activity of the enzyme lot and was chosen appropriate to have the assay in the linear range, typical concentrations were in the range of 0.003 μg/mL. The reaction was stopped by the addition of 5 μL of a solution of TR-FRET detection reagents (5 nM streptavidine-XL665 [Cisbio Bioassays, Codolet, France] and 1 nM anti-ribosomal protein S6 (pSer236)-antibody from Invitrogen [#44921G] and 1 nM LANCE EU-W1024 Labeled ProteinG [Perkin-Elmer, product no. AD0071]) in an aqueous EDTA-solution (100 mM EDTA, 0.1% (w/v) bovine serum albumin in 50 mM HEPES pH 7.5).
The resulting mixture was incubated for 1 h at 22° C. to allow the formation of complex between the phosphorylated biotinylated peptide and the detection reagents. Subsequently the amount of phosphorylated substrate was evaluated by measurement of the resonance energy transfer from the Eu-chelate to the streptavidine-XL. Therefore, the fluorescence emissions at 620 nm and 665 nm after excitation at 350 nm were measured in a TR-FRET reader, e.g. a Rubystar (BMG Labtechnologies, Offenburg, Germany) or a Viewlux (Perkin-Elmer). The ratio of the emissions at 665 nm and at 622 nm was taken as the measure for the amount of phosphorylated substrate.
On to `Cc1ccccc1N1CCN(C(=O)C2CCc3c(sc4ncnc(Nc5ccc6[nH]ncc6c5)c34)C2)CC1` (racemic) [Example 110, (R)S-[4-(1H-indazol-5-ylamino)-5,6,7,8-tetrahydro[1]benzothieno[2,3-d]pyrimidin-7-yl][4-(2-methylphenyl)piperazin-1-yl]methanone], for which the pIC50 was 6.88.

Take `Cc1cccc(N2CCN(C(=O)C3CCc4c(sc5ncnc(Nc6ccc7[nH]ncc7c6)c45)C3)CC2)c1` (racemic) [Example 111, (RS)-[4-(1H-indazol-5-ylamino)-5,6,7,8-tetrahydro[1]benzothieno[2,3-d]pyrimidin-7-yl][4-(3-methylphenyl)piperazin-1-yl]methanone]: the negative logarithm of the IC50 (pIC50) was 7.61.

For the molecule `O=C(C1CCc2c(sc3ncnc(Nc4ccc5[nH]ncc5c4)c23)C1)N1CCN(c2ccncc2)CC1` (racemic) [Example 112, (RS)-[4-(1H-indazol-5-ylamino)-5,6,7,8-tetrahydro[1]benzothieno[2,3-d]pyrimidin-7-yl][4-(pyridin-4-yl)piperazin-1-yl]methanone], the pIC50 was 8.03.

For the molecule `CC(C)(C)CNC(=O)C1CCc2c(sc3ncnc(Nc4ccc5[nH]ncc5c4)c23)C1` (racemic) [Example 113, (RS)-N-(2,2-dimethylpropyl)-4-(1H-indazol-5-ylamino)-5,6,7,8-tetrahydro[1]benzothieno[2,3-d]pyrimidine-7-carboxamide], the negative logarithm of the IC50 (pIC50) is 7.69.

Take `O=C(C1CCc2c(sc3ncnc(Nc4ccc5[nH]ncc5c4)c23)C1)N1CCN(c2cnccn2)CC1` (racemic) [Example 114, (RS)-[4-(1H-indazol-5-ylamino)-5,6,7,8-tetrahydro[1]benzothieno[2,3-d]pyrimidin-7-yl][4-(pyrazin-2-yl)piperazin-1-yl]methanone]: the pIC50 is 7.90.

For `N#Cc1ccccc1N1CCN(C(=O)C2CCc3c(sc4ncnc(Nc5ccc6[nH]ncc6c5)c34)C2)CC1` (racemic) [Example 115, (RS)-2-(4-{[4-(1H-indazol-5-ylamino)-5,6,7,8-tetrahydro[1]benzothieno[2,3-d]pyrimidin-7-yl]carbonyl}piperazin-1-yl)benzonitrile], the negative-log IC50 (pIC50) was 7.82.

Turning to `O=C(NCCc1cccs1)C1CCc2c(sc3ncnc(Nc4ccc5[nH]ncc5c4)c23)C1` (racemic) [Example 116, (RS)-4-(1H-indazol-5-ylamino)-N-[2-(thiophen-2-yl)ethyl]-5,6,7,8-tetrahydro[1]benzothieno[2,3-d]pyrimidine-7-carboxamide], the negative logarithm of the IC50 (pIC50) is 8.24.

`Cn1nccc1NC(=O)C1CCc2c(sc3ncnc(Nc4ccc5[nH]ncc5c4)c23)C1` (racemic) [Example 117, (RS)-4-(1H-indazol-5-ylamino)-N-(1-methyl-1H-pyrazol-5-yl)-5,6,7,8-tetrahydro[1]benzothieno[2,3-d]pyrimidine-7-carboxamide]: the negative-log IC50 (pIC50) was 7.95.

Take `CN1CCCN(C(=O)C2CCc3c(sc4ncnc(Nc5ccc6[nH]ncc6c5)c34)C2)CC1` (racemic) [Example 118, (RS)-[4-(1H-indazol-5-ylamino)-5,6,7,8-tetrahydro[1]benzothieno[2,3-d]pyrimidin-7-yl](4-methyl-1,4-diazepan-1-yl)methanone]: the pIC50 is 7.88.

In the case of `CCN1CCN(C(=O)C2CCc3c(sc4ncnc(Nc5ccc6[nH]ncc6c5)c34)C2)CC1` (racemic) [Example 119, (RS)-(4-ethylpiperazin-1-yl)[4-(1H-indazol-5-ylamino)-5,6,7,8-tetrahydro[1]benzothieno[2,3-d]pyrimidin-7-yl]methanone], the negative logarithm of the IC50 (pIC50) is 7.80.

With `CN(C)C(=O)CN(C)C(=O)C1CCc2c(sc3ncnc(Nc4ccc5[nH]ncc5c4)c23)C1` (racemic) [Example 120, (RS)-N-[2-(dimethylamino)-2-oxoethyl]-4-(1H-indazol-5-ylamino)-N-methyl-5,6,7,8-tetrahydro[1]benzothieno[2,3-d]pyrimidine-7-carboxamide], the pIC50 is 8.08.
